{"source": "ChEMBL document CHEMBL3217406", "about": "“Small molecules aimed at type III secretion systems to inhibit bacterial virulence” (Medchemcomm, 2013)", "key": {"[1]": {"assay": "Inhibition of Escherichia coli T3SS-mediated hemolysis of sheep erythrocytes by microplate reader analysis"}, "[2]": {"assay": "Inhibition of T3SS-mediated LcrQ secretion in Yersinia pseudotuberculosis assessed as yopE promoter-luciferase gene expression by luciferase reporter gene assay"}, "[3]": {"assay": "Inhibition of Escherichia coli T3SS-mediated hemolysis of erythrocytes"}, "[4]": {"assay": "Inhibition of T3SS-mediated SipB secretion in Salmonella typhimurium", "parameters": "species or system Salmonella enterica subsp. enterica serovar Typhimurium"}, "[5]": {"assay": "Inhibition of T3SS-mediated ExoU secretion in Pseudomonas aeruginosa PA103"}, "[6]": {"assay": "Inhibition of T3SS-mediated YopE secretion in Yersinia pestis KIM19 by ELISA"}, "[7]": {"assay": "Inhibition of phospholipase A2 activity of Pseudomonas aeruginosa N-terminal His6-tagged ExoU expressed in Escherichia coli BL21 cells using arachidonic TEPC as substrate by Ellman's method"}, "[8]": {"assay": "Inhibition of T3SS-mediated carboxypeptidase G2-SopE2-HA secretion in Salmonella typhimurium by fluorescence analysis", "parameters": "species or system Salmonella enterica subsp. enterica serovar Typhimurium"}}, "data": [{"compound": "CC(C)[C@H](NC(=O)[C@H](C)NC(=O)[C@@H](N)[C@@H](N)CC[C@@H](O)[C@@H](O)C(O)[C@@H]1CN(C(N)=O)C(=N)N1)C(=O)O", "note": "(some centres not stated)", "values": [{"measurement": "IC50", "setting": "[1]", "result": 0.02, "unit": "µM"}]}, {"compound": "O=C(N/N=C/c1ccc(O)cc1O)c1ccc([N+](=O)[O-])cc1", "values": [{"measurement": "IC50", "setting": "[2]", "result": 25, "unit": "µM"}]}, {"compound": "C/C=C\\C=C\\[C@@H]1O[C@](O)([C@H](CC)C(=O)NC/C=C/C=C(\\C)[C@@H](OC)[C@@H](C)[C@@H]2O[C@H](/C=C/C=C/C=C(\\C)C(=O)c3c(O)ccn(C)c3=O)[C@H](O)[C@@H]2O)[C@H](O)[C@H](O)C1(C)C", "values": [{"measurement": "IC50", "setting": "[3]", "result": 1.5, "unit": "µg/mL"}]}, {"compound": "O=C(O)C(Cc1ccc(Cl)cc1)Nc1nc(-c2ccc(-c3ccccc3)cc2)nc(N2CCN(c3ccccn3)CC2)n1", "note": "(configuration not stated)", "values": [{"measurement": "IC50", "setting": "[4]", "result": 20, "unit": "µM"}, {"measurement": "IC50", "setting": "[5]", "result": "> 100", "unit": "µM"}]}, {"compound": "O=C(Cc1csc(NC(=O)c2ccccc2)n1)Nn1cnc2scc(-c3ccco3)c2c1=O", "values": [{"measurement": "IC50", "setting": "[6]", "result": 20, "unit": "µM"}]}, {"compound": "NC(=O)c1cccc2c1-c1ccccc1C2", "values": [{"measurement": "IC50", "setting": "[7]", "result": 7, "unit": "µM"}]}, {"compound": "O=C(N/N=C/c1cc(Br)cc(Br)c1O)c1cccnc1", "values": [{"measurement": "IC50", "setting": "[2]", "result": 25, "unit": "µM"}]}, {"compound": "O=C(N/N=C/c1cc(Br)cc(Br)c1O)c1ccc([N+](=O)[O-])cc1", "values": [{"measurement": "IC50", "setting": "[8]", "result": 5.5, "unit": "µM"}, {"measurement": "IC50", "setting": "[2]", "result": 15, "unit": "µM"}]}, {"compound": "O=C(N/N=C/c1cc(Cl)cc(Cl)c1O)c1ccccc1", "values": [{"measurement": "IC50", "setting": "[2]", "result": 25, "unit": "µM"}]}, {"compound": "CC(=O)Nc1ccc(N2C(=O)c3ccc(C(=O)OC(C)C(=O)c4c[nH]c5ccccc45)cc3C2=O)cc1", "note": "(configuration not stated)", "values": [{"measurement": "IC50", "setting": "[6]", "result": 20, "unit": "µM"}]}]}
